This note sets out measurements from patent US10065965B2, “Imidazo[1,2-B][1,2,4]triazine derivatives as antiparasitic agents” (GlaxoSmithKline Intellectual Property Development Limited, priority 2015, dated 2018).

In brackets after ≈: the same amount, converted by molar mass.

Series [1] can be described thus: Assay 1 intramacrophage Leishmania donovani assay, THP-1 cell count (cytotoxicity readout). It counts as cell-based. The conditions noted are these: human, minimum threshold 4.3, read-out: cytotoxicity against THP-1 cells, pEC50 value (converted). The procedure:
The intramacrophage Leishmania assay was performed using a modified version of the method described in De Rycker et al. (Antimicrob Agents Chemother. 2013 July; 57(7):2913-22. Comparison of a high-throughput high-content intracellular Leishmania donovani assay with an axenic amastigote assay. De Rycker M, Hallyburton I, Thomas J, Campbell L, Wyllie S, Joshi D, Cameron S, Gilbert I H, Wyatt P G, Frearson J A, Fairlamb A H, Gray D W.). Procedure: 350 nl of compound was pre-dispensed into 384 well sterile intermediary plates. For single point screening, amphotericin B was added to all wells of column 24 as a positive control (final concentration 2 μM) and DMSO to column 23. For potency determinations, ten-point, one in three dilution curves were created with the highest concentration being 50 μM and on each plate a control curve of amphotericin B was included. Controls were as follows: columns 11 and 12: DMSO, columns 23 and 24: amphotericin B (final concentration 2 μM). To the intermediary plates, 35 μl of THP-1 media was added and plates were shaken for >5 min to ensure complete mixing. THP-1 cells (8,000 per well, 50 μl) were plated into black clear-bottom 384 well plates (Corning) in presence of 20 nM PMA. After 20 min at RT, the plates were incubated at 37° C. under 5% CO2 in a humidified incubator for 75 h. The cells were then washed with […] sterile phosphate buffered saline (PBS) supplemented with 1 mM CaCl2, 0.5 mM MgCl2, 0.1% (w/v) bovine serum albumin (PBS-A) and amastigotes were added to all wells at a multiplicity of infection of 5 (40,000 amastigotes per well). After 40 min at RT, plates were returned to the incubator. Amastigotes were incubated in the presence of THP-1 macrophages for 16 h. Any remaining extracellular amastigotes were subsequently removed with an overflow wash of 1 mL PBS-A per well (wash buffer is being aspirated from the top of the well as it is being dispensed) followed by addition of 25 μl of the compound pre-dilutions using a Fluidx Ipette-pro pipetting station. The final dilution of each compound was 200-fold. Plates were incubated for 96 h and then washed (250 μl PBS-A) and fixed (4% (v/v) formaldehyde-PBS, 30 min, RT). After fixation, the wells were washed with 250 μl PBS, stained (10 μg/mL DAPI, 0.4 μg mL-1 HCS Cellmask Deep Red in PBS+0.1% (v/v) Triton X-100, 30 min, RT) and washed with 250 μl PBS. Finally, PBS+0.05% (v/v) thimerosal was added to the wells, the plates were sealed and imaged on a high-content microscope (GE IN Cell 2000) using a 10× objective. Image analysis was carried out with GE IN Cell Analyzer 1000 Workstation using the “Multi Target Analysis” module. Settings for segmentation were as follows: nuclei: minimum area: 142.384 μm2, sensitivity: 81, method: top-hat; cells: characteristic area: 2500 μm2, sensitivity: 60, method: multiscale top-hat; organelles (amastigotes): granule size 1-3, 3 scales, sensitivity: 90, detection in entire cell. For each well, i) THP-1 cell count (cytotoxicity readout) and ii) average number of amastigotes per cell (potency readout) were calculated, both in terms of pEC50 values.

Series [2] can be described thus: Assay 5 Leishmania donovani intracellular assay, cytotoxicity against THP-1 cells. It counts as cell-based. The conditions noted are these: human, total number of THP-1 cells, minimum threshold 4.3, read-out: cytotoxicity against THP-1 cells, pEC50 value (converted). How it is done:
Compounds were dispensed into black 384-well assay plates (Greiner) by acoustic dispensing (LabCyte ECHO). For potency determinations, eleven-point, one in three dilution curves were generated, with a top concentration of 50 μM. THP-1 human monocytes cells were dispensed in T225 tissue culture flasks and differentiated using 30 nM of PMA, after 24 hours they were infected overnight using Leishmania donovani expressing Green Fluorescent Protein (eGFP) amastigotes in the same T225 tissue culture flasks at a multiplicity of infection of 10. Next, any remaining free amastigotes were washed away with PBS and the infected THP-1 cells were harvested by trypsinisation. The infected cells were then plated into 384-well plates containing the compounds to be tested, at 3000 cells per well in RPMI media with 2% FBS and 25 mM Sodium bicarbonate. After 96 h incubation at 37° C. in presence of 5% CO2, the plates were fixed with 4% formaldehyde for 30 minutes, washed with PBS and stained with 0.1 mg/mL of DAPI for 30 minutes and washed again with PBS. The plates were imaged on a Perkin Elmer Opera high-content imaging system using a 20× air objective with two expositions, one for DAPI stain and other for eGFP. Images were analysed using the Acapella building blocks system (Perkin Elmer). The image analysis algorithm first identified the THP-1 nuclei followed by demarcation of the cytoplasm and identification of intracellular amastigotes. This algorithm reported mean number of parasites per THP-1 cell, the percentage of infected THP-1 cells and the total number of THP-1 cells.

A further series has as its system Trypanosoma cruzi. The series can be described thus: Assay 6 Trypanosoma cruzi intracellular assay (infected H9C2 cells). It counts as cell-based. The conditions noted are these: H9c2, in Rattus norvegicus, 72 h, infected H9C2 rat cardiomyocytes, read-out: pEC50 value against Trypanosoma cruzi (converted). The essentials:
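Infected H9C2 rat cardiomyocytes (T. cruzi trypomastigotes, MOI 1, 18 h) plated at 2500 cells/well on compound, 11-point 1:3 curves from 50 μM top, 72 h at 37 °C in 2% FBS DMEM. Fixed, Draq5-stained, high-content imaged; algorithm counts parasites per cell, % infected cells and total host cells (cytotoxicity).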

The nature of series [3]: Assay 4 solubility assay, ChemiLuminescent Nitrogen Detection (CLND). The series is classed as physicochemical. The conditions noted are these: phosphate buffered saline, pH 7.4, aqueous buffer, kinetic from dmso stock, pH 7.4 PBS, from 10 mM DMSO stock, 1 h at room temperature. In outline: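 Kinetic solubility: 10 mM DMSO stock diluted 5 µl into 100 µl pH 7.4 PBS, incubated 1 h at room temperature, then filtered. Filtrate quantified by HPLC with chemiluminescent nitrogen detection against ondansetron and caffeine standards; solubility in µM by linear-regression calibration.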

Series [4] can be described thus: Assay 6 Trypanosoma cruzi intracellular assay, cytotoxicity against H9c2 cells. It counts as cell-based. The conditions noted are these: rat, H9C2 cardiomyocytes infected with T. cruzi trypomastigotes, total number of H9C2 cells, minimum threshold 4.3, read-out: cytotoxicity against H9c2 cells, pEC50 (converted). How it is done: Compounds were dispensed into black 384-well assay plates (Greiner) by acoustic dispensing (LabCyte ECHO). For potency determinations, eleven-point, one in three dilution curves were generated, with a top concentration of 50 μM. H9C2 rat cardiomyocytes cells were dispensed in T225 tissue culture flasks and after 4 hours they were infected during 18 hours with T. cruzi trypomastigotes in the same T225 tissue culture flasks at a multiplicity of infection of 1. Next, any remaining free trypomastigotes were washed away with PBS and the infected H9C2 cells were harvested by trypsinisation. The infected H9C2 cells were then plated into 384-well plates containing the compounds to be tested, at 2500 cells per well in DMEM media with 2% FBS, 1% Penicillin/Streptomocin, 2 mM L-Glutamine, 1 mM Na Pyruvate and 25 mM HEPES. After 72 h incubation at 37° C. in presence of 5% CO2, the plates were fixed and stained with 4% formaldehyde and 2 μM Draq5 for 3 hours at room temperature. The plates were imaged on a Perkin Elmer Opera high-content imaging system using a 20× air objective. Images were analysed using the Acapella building blocks system (Perkin Elmer). The image analysis algorithm first identified the H9C2 nuclei followed by demarcation of the cytoplasm and identification of intracellular amastigotes. This algorithm reported mean number of parasites per H9C2 cell, the percentage of infected H9C2 cells and the total number of H9C2 cells.

For the compound `COc1ccc(CNCc2cccc(-c3cnc4nc(-c5cc(NC(=O)N6CCCC6)ccc5F)cn4n3)c2)cc1` [Example 45, N-(4-fluoro-3-(2-(3-(((4-methoxybenzyl)amino)methyl)phenyl)imidazo [1,2-b][1,2,4]triazin-6-yl)phenyl)pyrrolidine-1-carboxamide], the EC50 at 96 h in series [1] is 3980 to 15800 nM; in series [2] it was 2510 to 10000 nM. Also, in the series with Trypanosoma cruzi, the EC50 was 5.01 to 631 nM. The solubility at 1 h in series [3] lay in the range of 10 to 83 µM (≈ 5.52 to 45.8 µg/mL). Moreover, the EC50 at 72 h in series [4] was 794 to 3160 nM.
